Like-named read-outs stand apart in the source and are kept apart here.
Assays:
Ctenocephalides felis = test system: Ctenocephalides felis
Description: b) Ctenocephalides felis Adulticide Assay: C. felis Single Dose Screen
Mortality of fleas was the primary endpoint in the assay. Fleas were considered dead if they didn't move or were on their sides and unable to walk or right themselves. […] The concentration chosen (1.26 μg/cm^2) was higher than that known to kill 90% of cat fleas (LC90) using the reference compound, permethrin.
The test species was the cat flea (Ctenocephalides felis). The strain used was obtained from external suppliers as pupae and held in the laboratory under testing conditions until the adults had emerged. Fifteen (15) fleas were used in a minimum of four replicates against a single concentration level (approximately 60 fleas). The insects were selected to be in the adult life stage, aged between 3 and 7 days post emergence.
The compounds to be tested were supplied as solids and were prepared in acetone as described below prior to testing. Samples were stored in a refrigerator (5±1° C.) unless otherwise specified.
During the mortality testing, the temperature was maintained at 25±1° C. Humidity was maintained at 75±5%. The base (area=159 mm^2) of a 100 mL glass Erlenmeyer (conical) flask provided the treatment surface. Flasks were pretreated with Coatasil™ glass treatment to maximise bio-availability of test compounds by preventing them from binding to glass the surface. The base of the 100 mL Erlenmeyer flask was treated with 0.5 mL of test sample in acetone and gently swirled. This volume was sufficient to cover the base of the flask. Flasks were left to dry for 24 hours before flea exposure.
Adult cat fleas were placed into a sorting chamber, which allowed fleas to jump into the Erlenmeyer flasks. Fifteen (15) adult cat fleas were collected in each flask. The top of the flasks were then covered in Parafilm™ and small holes were made to allow gas exchange. A 0.5 mL volume of acetone as a solvent control was applied to the base of an Erlenmeyer flask and the testing proceeded in the same manner described above. Cat fleas in the treatment containers were held under testing conditions for 8, 24 and/or 48 hours. Mortality was recorded at 8, 24, 8 and 24, or 24 and 48 hours Pooled 8, 24, 8 and 24, and 24 and 48 hour mortality data were converted to percentages and are summarized by Table 21, below.

Rhipicephalus sanguineus = test: Rapid screening protocol for topical application on brown dog ticks (% mortality)
Description: d) Rapid Screening Protocol for Topical Application on Brown Dog Ticks (Rhipicephalus sanguineus)
The aim of the test was to determine the presence of significant acaricidal activity in sample compounds or formulations when applied topically on brown dog ticks. A tick was defined as dead if it gave no apparent response when touched lightly and observed for 1 minute. To assess the experimental compound for acaricidal activity, a single dose level was chosen based on known results from previous experiments with a commercially available active reference compound. Both permethrin and fipronil were employed as reference compounds. The insect species tested was the Brown Dog Tick (Rhipicephalus sanguineus). Mixed sex adult ticks were used for tests. The strain used was cultured by von Berky Veterinary Services, Woody Point, QLD, AU and supplied as unfed adult ticks (mixed sex). Ticks were maintained in controlled conditions (temp. 18°±2° C., humidity 75±5% RH).
Test compounds (formulations or active ingredients) were stored in a refrigerator (5±1° C.) unless otherwise specified. Temperature was maintained at 25±1° C. and the humidity was ambient. The screening dose chosen was higher than that known to kill 90% of insects (LD90) using the reference compound. In the case of topical application of active compounds on adult ticks, the reference compound was fipronil and the dose chosen was 10 μg of active per tick (=10 μg of fipronil/1 μl of acetone). Ticks were each treated on the abdomen with 1 μL of a single dose level of test sample in acetone; ten ticks were treated with solvent only (acetone) in each test. Tests were replicated 4 times (total of 40 ticks treated). Ticks were held in recovery containers maintained under appropriate rearing conditions for 24 hours. Mortality resulting from the treatments was recorded at 24 hours. Pooled 24 hour mortality data were converted to percentages.

| SMILES | C. felis Mortality (%) 24 h (Ctenocephalides felis) | C. felis Mortality (%) 8 h (Ctenocephalides felis; 8 h, data from laboratory 1) | C. felis Mortality (%) 24 h (Ctenocephalides felis; 24 h, data from laboratory 1) | also measured |
| --- | --- | --- | --- | --- |
| CC(=NN(Cc1ccccc1)c1ccccc1)c1cc(Cl)ccc1NS(=O)(=O)C(F)(F)F [Compound 22] | 100% | – | – | C. felis Mortality (%) 8 h (Ctenocephalides felis): 98%; R. sanguineus Mortality (%) 24 h (Rhipicephalus sanguineus; data from laboratory 1): 33^A % |
| CCC(=NN(Cc1ccccc1)c1ccccc1)c1cc(Cl)ccc1NS(=O)(=O)C(F)(F)F [Compound 24] | 100% | – | – | C. felis Mortality (%) 8 h (Ctenocephalides felis): 100%; R. sanguineus Mortality (%) 24 h (Rhipicephalus sanguineus; data from laboratory 1): 28^A % |
| CC(=NN(c1ccccc1)C(C)C)c1cc(Cl)ccc1NS(=O)(=O)C(F)(F)F [Compound 28] | 100% | – | – | C. felis Mortality (%) 48 h (Ctenocephalides felis): 100%; R. sanguineus Mortality (%) 24 h (Rhipicephalus sanguineus; data from laboratory 2): 68% |
| CC(=NN(c1ccc(Cl)cc1)C(C)C)c1cc(Cl)ccc1NS(=O)(=O)C(F)(F)F [Compound 33] | 86% | – | – | C. felis Mortality (%) 48 h (Ctenocephalides felis): 100%; R. sanguineus Mortality (%) 24 h (Rhipicephalus sanguineus; data from laboratory 2): 88% |
| CCN(N=C(C)c1cc(Cl)ccc1NS(=O)(=O)C(F)(F)F)c1ccccc1Cl [Compound 37] | 89% | – | – | C. felis Mortality (%) 48 h (Ctenocephalides felis): 100%; R. sanguineus Mortality (%) 24 h (Rhipicephalus sanguineus; data from laboratory 2): 83% |
| CCN(N=C(C)c1cc(Cl)ccc1N(C)S(=O)(=O)C(F)(F)F)c1ccccc1F [Compound 44] | 3% | – | – | C. felis Mortality (%) 48 h (Ctenocephalides felis): 22%; R. sanguineus Mortality (%) 24 h (Rhipicephalus sanguineus; data from laboratory 2): 3% |
| CC(=NN(c1ccc(C(F)(F)F)cc1)C(C)C)c1cc(Cl)ccc1NS(=O)(=O)C(F)(F)F [Compound 47] | 100% | – | – | C. felis Mortality (%) 8 h (Ctenocephalides felis): 14%; R. sanguineus Mortality (%) 24 h (Rhipicephalus sanguineus; data from laboratory 2): 58% |
| CC(=NN(c1cccc(Cl)c1)C(C)C)c1cc(Cl)ccc1NS(=O)(=O)C(F)(F)F [Compound 50] | 100% | – | – | C. felis Mortality (%) 8 h (Ctenocephalides felis): 61%; R. sanguineus Mortality (%) 24 h (Rhipicephalus sanguineus; data from laboratory 2): 68% |
| CCCN(N=C(C)c1cc(Cl)ccc1NS(=O)(=O)C(F)(F)F)c1ccc(Br)cc1 [Compound 53] | 100% | – | – | C. felis Mortality (%) 8 h (Ctenocephalides felis): 71%; R. sanguineus Mortality (%) 24 h (Rhipicephalus sanguineus; data from laboratory 2): 50% |
| CC(=NN(C)c1ccc(Cl)nn1)c1cc(Cl)ccc1NS(=O)(=O)C(F)(F)F [Compound 194] | – | 0% | 5% | – |
| CC(=NN(C)c1ccccn1)c1cc(Cl)ccc1NS(=O)(=O)C(F)(F)F [Compound 195] | – | 2% | 30% | – |
| CC(=NN(C)c1ccc(Cl)cn1)c1cc(Cl)ccc1NS(=O)(=O)C(F)(F)F [Compound 196] | – | 3% | 32% | – |
| CC(=NN(C)c1cccc(Cl)n1)c1cc(Cl)ccc1NS(=O)(=O)C(F)(F)F [Compound 197] | – | 7% | 23% | – |
| CC(=NN(C)c1ccc2ccccc2n1)c1cc(Cl)ccc1NS(=O)(=O)C(F)(F)F [Compound 198] | – | 2% | 25% | – |
| CC(=Nn1c(=O)[nH]nc(C)c1=O)c1cc(Cl)ccc1NS(=O)(=O)C(F)(F)F [Compound 199] | – | 3% | 3% | – |
| CCCN(N=C(C)c1cc(Cl)ccc1NS(=O)(=O)C(F)(F)F)c1cccc(Cl)c1Cl [Compound 200] | – | 2% | 58% | – |
| CC(=Nn1c(C)nc2ccccc2c1=O)c1cc(Cl)ccc1NS(=O)(=O)C(F)(F)F [Compound 201] | – | 2% | 10% | – |
| CC(=NN(CCC#N)CCC#N)c1cc(Cl)ccc1NS(=O)(=O)C(F)(F)F [Compound 202] | – | 3% | 24% | – |
| CC(=NN(C)c1ccccc1C(F)(F)F)c1cc(Cl)ccc1NS(=O)(=O)C(F)(F)F [Compound 204] | – | 6% | 11% | – |
| CN(N=C1CCc2cccc(NS(=O)(=O)C(F)(F)F)c21)c1ccccc1 [Compound 205] | – | 12% | 13% | – |

| SMILES | C. felis Mortality (%) 24 h (Ctenocephalides felis) | C. felis Mortality (%) 8 h (Ctenocephalides felis; 8 h, data from laboratory 1) | C. felis Mortality (%) 24 h (Ctenocephalides felis; 24 h, data from laboratory 1) | also measured |
| --- | --- | --- | --- | --- |
| CC(=NN(C)c1cnccn1)c1cc(Cl)ccc1NS(=O)(=O)C(F)(F)F [Compound 206] | 12% | – | – | C. felis Mortality (%) 8 h (Ctenocephalides felis): 7% |
| C/C(=N\NC(=O)Nc1ccc(OC(F)(F)F)cc1)c1cc(Cl)ccc1NS(=O)(=O)C(F)(F)F [Compound 207] | – | 5% | 8% | – |
| C/C(=N\NC(=O)Nc1ccc(C(F)(F)F)cc1)c1cc(Cl)ccc1NS(=O)(=O)C(F)(F)F [Compound 208] | – | 8% | 18% | – |
| C/C(=N\N(C)c1nccc2ccccc12)c1cc(Cl)ccc1NS(=O)(=O)C(F)(F)F [Compound 209] | – | 7% | 18% | – |
| C/C(=N\N(C)c1cnc2ccccc2n1)c1cc(Cl)ccc1NS(=O)(=O)C(F)(F)F [Compound 210] | – | 4% | 17% | – |
| CCN(N=C(C)c1cc(Cl)ccc1NS(=O)(=O)C(F)(F)F)C1CCCC1 [Compound 212] | 59% | – | – | C. felis Mortality (%) 8 h (Ctenocephalides felis): 7% |
| CCC(=NN(CC)C1CCCC1)c1cc(Cl)ccc1NS(=O)(=O)C(F)(F)F [Compound 214] | – | 7% | 61% | – |
| CCN(N=C(C)c1cc(Cl)ccc1NS(=O)(=O)C(F)(F)F)C1CCCCC1 [Compound 216] | – | 0% | 52% | – |
| CC/C(=N\N(C)C1CCCCC1)c1cc(Cl)ccc1NS(=O)(=O)C(F)(F)F [Compound 217] | – | 3% | 48% | – |
| CCC(=NN(CC)C1CCCCC1)c1cc(Cl)ccc1NS(=O)(=O)C(F)(F)F [Compound 218] | – | 5% | 62% | – |
| CN(N=C1CCCc2cccc(NS(=O)(=O)C(F)(F)F)c21)c1ccccc1 [Compound 219, N-[8-(N′-methyl-N′-phenyl)hydrazono-5,6,7,8-tetrahydro-naphthalen-1-yl]-trifluoromethanesulfonamide] | 2% | – | – | C. felis Mortality (%) 8 h (Ctenocephalides felis): 0% |
| CCC(=O)N(CCC#N)/N=C(\C)c1cc(Cl)ccc1NS(=O)(=O)C(F)(F)F [Compound 225] | – | 2% | 73% | – |
| O=S(=O)(Nc1ccc(Cl)cc1C1=NN(c2ccccc2)CC1)C(F)(F)F [Compound 226] | – | 0% | 28% | – |
| O=S(=O)(Nc1ccc(Cl)cc1C1=NN(c2ccccc2F)CC1)C(F)(F)F [Compound 228] | – | 14% | 59% | – |
| O=S(=O)(Nc1ccc(Cl)cc1C1=NN(c2ccccc2)CC1)C(F)(F)F [Compound 229, N-[4-Chloro-2-(1-phenyl-4,5-dihydro-1H-pyrazol-3-yl)-phenyl]-trifluoromethanesulfonamide] | – | – | – | C. felis Mortality (%) 8 h (Ctenocephalides felis; 8 h): 18%; C. felis Mortality (%) 24 h (Ctenocephalides felis; 24 h): 37% |
| O=S(=O)(Nc1ccc(Cl)cc1-c1ccn(-c2ccccc2)n1)C(F)(F)F [Compound 230, N-[4-Chloro-2-[1-phenyl-1H-pyrazol-3-yl]-phenyl]-trifluoromethanesulfonamide] | – | – | – | C. felis Mortality (%) 8 h (Ctenocephalides felis; 8 h): 10%; C. felis Mortality (%) 24 h (Ctenocephalides felis; 24 h): 43% |
| O=S(=O)(Nc1ccc(Cl)cc1C1=NN(c2cccc(Cl)c2)CC1)C(F)(F)F [Compound 231] | – | 12% | 42% | – |
| O=S(=O)(Nc1ccc(Cl)cc1C1=NN(c2cccc(F)c2)CC1)C(F)(F)F [Compound 232] | – | 7% | 27% | – |
| O=S(=O)(Nc1ccc(Cl)cc1C1=NN(c2ccc(F)cc2)CC1)C(F)(F)F [Compound 233] | – | 9% | 28% | – |
| O=S(=O)(Nc1ccc(Cl)cc1C1=NN(c2ccc(Cl)cc2)CC1)C(F)(F)F [Compound 234] | – | 14% | 41% | – |

From US20070238700A1, “N-PHENYL-1,1,1-TRIFLUOROMETHANESULFONAMIDE HYDRAZONE DERIVATIVE COMPOUNDS AND THEIR USAGE IN CONTROLLING PARASITES” (priority 2006, published 2007)
